Measured values reported in ChEMBL document CHEMBL1128614, “Proctolin and related N-methylated pentapeptides selectively contract locust foregut but not rat ileum” (1995).
Square brackets hold non-standard residues; d marks the D form. Peptide text beside a SMILES is read from it. NMeT = CN[C@H](C(=O)O)[C@@H](C)O; NMeL = CN[C@@H](CC(C)C)C(=O)O

How the values were obtained:
Type in all cases: functional
Schistocerca gregaria [1] = experiment: Tested for tissue (foreguts isolated from Schistocerca gregaria) contraction response; No activity
Schistocerca gregaria [2] = experiment: Tested for contraction Schistocerca gregaria gut at concentrations ranging from 10 nM to 5 uM and maximum response concentration reported
Schistocerca gregaria [3] = experiment: Tested for tissue (foreguts isolated from Schistocerca gregaria) contraction response at 2 uM
Schistocerca gregaria [4] = experiment: Tested for tissue (foreguts isolated from Schistocerca gregaria) contraction response at 80 uM

Q: `CC(C)C[C@@H](NC(=O)[C@@H](Cc1ccc(O)cc1)N(C)C(=O)[C@@H](N)CCCN=C(N)N)C(=O)N1CCC[C@@H]1C(=O)N[C@H](C(=O)O)[C@H](C)O` was tested. Which Activity (Schistocerca gregaria [1]) did it give?
A: No activity

Q: With `CC(C)C[C@@H](NC(=O)[C@@H](Cc1ccc(O)cc1)NC(=O)[C@@H](N)CCCN=C(N)N)C(=O)N1CCC[C@@H]1C(=O)N[C@H](C(=O)O)[C@H](C)O` as the molecule, how does the Concentration (Schistocerca gregaria [2]) read?
A: 1 µM

Q: Which Max contraction (Schistocerca gregaria [3]) does the source give for `CC(C)C[C@H](NC(=O)[C@H](Cc1ccc(O)cc1)NC(=O)[C@@H](N)CCCN=C(N)N)C(=O)N1CCC[C@H]1C(=O)N(C)[C@H](C(=O)O)[C@@H](C)O` (H-RYLP[NMeT]-OH) here?
A: 78%

Q: With `CC(C)C[C@@H](C(=O)N1CCC[C@H]1C(=O)N[C@H](C(=O)O)[C@@H](C)O)N(C)C(=O)[C@H](Cc1ccc(O)cc1)NC(=O)[C@@H](N)CCCN=C(N)N` (H-RY[NMeL]PT-OH) as the molecule, how does the Max contraction (Schistocerca gregaria [4]) read?
A: 52%
